The values below come from patent US20250222146A1, “Radiopharmaceuticals Targeting Somatostatin Receptor 2 and Uses Thereof” (RayzeBio, Inc., priority 2023, published 2025).

Each structure is given as a SMILES string. Read-outs that look alike come from different tables or passages of the source. Numbered stars: 1 amine (or outer) side, 2 acyl side, 3 side chain; on linkers, the order of the positions; unused ones are H or OH. Square brackets hold non-standard residues; d marks the D form. Side chains are listed from the residue outwards. Peptide text beside a SMILES is read from it. * marks the point of attachment. DOTA(Lu)NH(CH2)6NHCOCH2 = O=C(CN1CCN2CCN3CCN(CC1)CC(=O)[O][Lu]([O]C(=O)C2)[O]C(=O)C3)NCCCCCCNC(=O)C*; X6 = O=C(CN1CCN2CCN3CCN(CC1)CC(=O)[O][Lu]([O]C(=O)C2)[O]C(=O)C3)NCCOCCOCCOCCNC(=O)C*; DOTA(Lu) = O=C1CN2CCN3CCN(CC(=O)*)CCN(CC2)CC(=O)[O][Lu]([O]1)[O]C(=O)C3; dTrp(βS-Me) = C[C@@H](c1c[nH]c2ccccc12)[C@@H](N)C(=O)O; X2 = O=C([C@H](CCC1CNC1)N[*:1])[*:2]; 4Pal = N[C@@H](Cc1ccncc1)C(=O)O; NMeOrn = CN[C@@H](CCCN)C(=O)O; NMehCys = CN[C@@H](CCS)C(=O)O; NMeK = CN[C@@H](CCCCN)C(=O)O; Ahx = NCCCCCC(=O)O

The target in the assay is SSTR2 (Homo sapiens, UniProt P30874). The assay is described as follows: SSTR binding affinity by radioligand binding competition assay ([125I]-Tyr11-Somatostatin, membrane extracts).
Chain of SSTR2 (P30874 whole entry): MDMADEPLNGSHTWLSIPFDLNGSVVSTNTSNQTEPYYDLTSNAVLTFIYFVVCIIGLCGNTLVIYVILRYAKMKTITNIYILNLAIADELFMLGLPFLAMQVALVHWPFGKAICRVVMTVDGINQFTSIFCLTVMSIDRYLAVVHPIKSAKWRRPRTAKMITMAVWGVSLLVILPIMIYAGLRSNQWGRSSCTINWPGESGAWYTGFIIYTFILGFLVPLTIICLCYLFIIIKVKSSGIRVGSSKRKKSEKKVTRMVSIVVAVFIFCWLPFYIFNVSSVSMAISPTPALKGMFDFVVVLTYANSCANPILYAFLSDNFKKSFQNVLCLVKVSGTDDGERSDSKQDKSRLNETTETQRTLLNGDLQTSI
Setting [1] is: radioligand competition, [125I]-Tyr11-Somatostatin 0.1 nM, membrane extracts, Ki from IC50 by Cheng Prusoff, read-out: SSTR2 Ki.

As usually defined, the Ki is a measure of affinity in units of concentration, obtained from inhibition or displacement. For the molecule `C[C@@H](O)[C@@H]1NC(=O)[C@H](CCC2CNC2)NC(=O)[C@@H]([C@@H](C)c2c[nH]c3ccccc23)NC(=O)[C@H](Cc2ccc(O)cc2)NC(=O)[C@H](CCCCNC(=O)CN2CCN3CCN4CCN(CC2)CC(=O)[O][Lu]([O]C(=O)C3)[O]C(=O)C4)N(C)C(=O)[C@H](Cc2ccccc2)NC1=O` [RB-0006128] (cyclo(F[NMeK](DOTA(Lu))Y[dTrp(βS-Me)][X2]T)), the inhibitory constant (Ki) under setting [1] was less than 1 nM.
As for `CC(C)[C@@H]1NC(=O)[C@H](CCCCN)NC(=O)[C@@H](Cc2c[nH]c3ccccc23)NC(=O)[C@H](Cc2ccc(O)cc2)NC(=O)[C@H](CCCNC(=O)CCCCCNC(=O)CN2CCN3CCN4CCN(CC2)CC(=O)[O][Lu]([O]C(=O)C3)[O]C(=O)C4)N(C)C(=O)[C@H](Cc2ccccc2)NC1=O` [RB-0002672] (cyclo(F[NMeOrn]([Ahx-DOTA(Lu)])Y[dW]KV)), the inhibition constant (Ki) under setting [1] is 1 to 3.33 nM.
`C[C@@H](O)[C@@H]1NC(=O)[C@H](CCCCN)NC(=O)[C@@H](Cc2c[nH]c3ccccc23)NC(=O)[C@H](Cc2ccncc2)NC(=O)[C@H](CCSCC(=O)NCCOCCOCCOCCNC(=O)CN2CCN3CCN4CCN(CC2)CC(=O)[O][Lu]([O]C(=O)C3)[O]C(=O)C4)N(C)C(=O)[C@H](Cc2ccccc2)NC1=O` [RB-0003504] (cyclo([4Pal][dW]KTF[NMehCys](X6))): the Ki under setting [1] fell in the range of 1 to 3.33 nM.
As for `CC(C)[C@@H]1NC(=O)[C@H](CCCCN)NC(=O)[C@@H]([C@@H](C)c2c[nH]c3ccccc23)NC(=O)[C@H](Cc2ccc(O)cc2)NC(=O)[C@H](CCSCC(=O)NCCCCCCNC(=O)CN2CCN3CCN4CCN(CC2)CC(=O)[O][Lu]([O]C(=O)C3)[O]C(=O)C4)N(C)C(=O)[C@H](Cc2ccccc2)NC1=O` [RB-0004609] (cyclo(F[NMehCys](DOTA(Lu)NH(CH2)6NHCOCH2)Y[dTrp(βS-Me)]KV)), under setting [1], the Ki is less than 1 nM.
The same measure, in the same setting: the same measure for `C[C@@H](O)[C@@H]1NC(=O)[C@H](CC2CCNCC2)NC(=O)[C@@H]([C@@H](C)c2c[nH]c3ccccc23)NC(=O)[C@H](Cc2ccc(O)cc2)NC(=O)[C@H](CCCCn2cc(CNC(=O)CN3CCN4CCN5CCN(CC3)CC(=O)[O][Lu]([O]C(=O)C4)[O]C(=O)C5)nn2)N(C)C(=O)[C@H](Cc2ccccc2)NC1=O` [RB-0006591]: 3.33 to 10 nM.
`C[C@@H](O)[C@@H]1NC(=O)[C@H](CCCCN)NC(=O)[C@@H](Cc2c[nH]c3ccccc23)NC(=O)[C@H](Cc2ccc(O)cc2)NC(=O)[C@H](CCCCNC(=O)COCCOCCOCCNC(=O)CN2CCN3CCN4CCN(CC2)CC(=O)[O][Lu]([O]C(=O)C3)[O]C(=O)C4)N(C)C(=O)[C@H](Cc2ccccc2)NC1=O` [RB-0003248] came in with a Ki (SSTR2 Ki, radioligand competition, [125I]-Tyr11-Somatostatin 0.1 nM, membrane extracts, Ki from IC50 by Cheng Prusoff) of 3.33 to 10 nM.
Regarding `CC(C)[C@@H]1NC(=O)[C@H](CCCCN)NC(=O)[C@@H](Cc2c[nH]c3ccccc23)NC(=O)[C@H](Cc2ccc(O)cc2)NC(=O)[C@H](CCC(=O)NCCCCCCNC(=O)CN2CCN(CC(=O)O)CCN(CC(=O)O)CCN(CC(=O)O)CC2)N(C)C(=O)[C@H](Cc2ccccc2)NC1=O` [RB-0002678] (HELM PEPTIDE1{F.[CN([C@@H](CCC(=O)[*:3])C(=O)[*:2])[*:1]].Y.[dW].K.V}|CHEM1{[O=C(O)CN1CCN(CC(=O)O)CCN(CC(=O)NCCCCCCN[*:1])CCN(CC(=O)O)CC1]}$PEPTIDE1,CHEM1,2:R3-1:R1|PEPTIDE1,PEPTIDE1,1:R1-6:R2$$$V2.0), under “read-out: SSTR2 Ki, radioligand competition, [125I]-Tyr11-Somatostatin 0.1 nM, membrane extracts, Ki from IC50 by Cheng Prusoff”, the Ki was 3.33 to 10 nM.
As to `C[C@@H](O)[C@@H]1NC(=O)[C@H](CCCCN)NC(=O)[C@@H](Cc2c[nH]c3ccccc23)NC(=O)[C@H](Cc2ccc(O)cc2)NC(=O)[C@H](CNC(=O)C[C@@H](NC(=O)CCCCCNC(=O)CN2CCN3CCN4CCN(CC2)CC(=O)[O][Lu]([O]C(=O)C3)[O]C(=O)C4)C(=O)O)N(C)C(=O)[C@H](Cc2ccccc2)NC1=O` [RB-0005736], the Ki under setting [1] is 3.33 to 10 nM.
Take `C[C@@H](O)[C@@H]1NC(=O)[C@H](CCCCN)NC(=O)[C@@H](Cc2c[nH]c3ccccc23)NC(=O)[C@H](Cc2ccc(O)cc2)NC(=O)[C@H](C)N(C)C(=O)[C@H](Cc2ccccc2)NC1=O` [RB-0002594]: the inhibitory constant (Ki) (read-out: SSTR2 Ki) is less than 1 nM.
